Assay results as given in patent publication US11603343B2, “Inhibition of DYRK1A kinase” (Ankh Life Sciences Limited, priority 2020, dated 2023).

Target: T1, human DYRK1A (Homo sapiens, UniProt Q13627)
T1 construct: host or cells: E. coli BL21(DE3)
Experiment: ELISA DYRK1A non-radioactive phosphorylation assay (HT-PRD substrate)
Assay type: biochemical
Experimental: In order to determine the effectiveness of the DYRK1A inhibitors of the invention, a series of ELISA assays were performed, along with Western Blot assays.
The ELISA assays were devised as a modified form of the assay described in Liu et al. “An ELISA DYRK1A non-radioactive assay suitable for the characterization of inhibitors,” F1000Research 2017, 6:42 (doi: 10.12688/f1000research.10582.1), incorporated by reference herein in its entirety.
Specifically, human DYRK1A (Addgene #38913) and HT-PRD (Addgene #87755) plasmids were obtained from Addgene and were expressed and purified using Ni affinity chromatography, as explained below. Proteins were quantified by the conventional Bradford method and stored at −80° C. until used.
HT-PRD was diluted in dilution buffer (25 mM Tris-HCl, pH 7.4 and 100 mM NaCl) to 4 ng/μL and used to coat a 96-well plate (BD Falcon #353072) with 100 μL per well at 4° C. overnight.
The wells were next washed with dilution buffer 3 times to remove unbound materials, and then the wells were blocked with 150 μL blocking buffer (2% BSA, 1×PBS, and 0.25% Tween 20) at room temperature for 60 minutes with shaking on a shaker.
After the 60-minute shaking period, the wells were washed thoroughly with dilution buffer 3 times to prepare for the phosphorylation in the next step.
Duplicate DYRK1A phosphorylation reactions were performed in the wells with 100 μL reaction mixtures each containing 25 mM HEPES, pH 7.4, 100 mM NaCl, 5 mM MgCl2, 100 μM ATP, 1% DMSO, and 200 ng/mL DYRK1A. Separate reaction mixtures included a no-inhibitor DMSO control, harmine inhibitor, and different concentrations of the inhibitors of the present invention. The plate was left on a temperature-controlled shaker for 30 minutes at 30° C.
The phosphorylation reactions were terminated after the 30-minute shaking, by the addition of 20 mM EDTA. The wells were then washed with PBST (0.02% Tween 20).
HT-PRD phosphorylation was determined by the sandwich antibody staining protocol. […] The extent of the phosphorylation reactions was monitored at λ=405 nm. […]

[1] = tested at 5 μg/mL, significantly greater than DMSO and any of the other fractions at the same level of use (FIG. 1)

SMILES | inhibition of DYRK1A [1] | inhibition of DYRK1A (reference inhibitor, text says 100 μg/mL, sample table lists harmine 2 μM and 10 μM (FIG. 1))
Cc1c(O)cc(C(C)C)c(O)c1Cc1cc(O)c(C(C)C)cc1O [compound XVIII] | very pronounced inhibition of DYRK1A | 
Cc1c(O)cc(C(C)C)c(O)c1CC1=CC(=O)C(C(C)C)=CC1=O [compound XVII] | very pronounced inhibition of DYRK1A | 
COc1ccc2c3c([nH]c2c1)C(C)=NCC3 [harmaline, reference compound] |  | showed inhibition of DYRK1A
